The text below walks through data of patent US20150231109A1, “COMBINATIONS (CATECHINS AND METHOTREXATE) FOR USE IN THE TREATMENT OF MELANOMAS” (UNIVERSIDAD DE MURCIA, priority 2012, published 2015).

In one assay the test system is IGR39 cells. Nature of the assay: Matrigel Boyden chamber invasion assay, IGR39. It is filed as cell-based. As to conditions: IGR39, MTX 72 h, 1 μM. How it is done:
FIGS. 1A-J. Methotrexate up-regulates the expression of MITF. A, The MITF rheostat, and the two-step strategy for melanoma therapy: Drug A induces MITF, driving cells to be sensitive to Drug B. B, MTX (1 μM) increases MITF mRNA determined using quantitative and conventional RT-PCR from indicated cell lines. […] C, MTX (1 μM) induces MITF protein assayed by western blotting (WB) (*P<0.05). D, Immunofluorescence of control or MTX-treated (3 h) 501 MEL cells using anti-MITF and DAPI. E, Matrigel assay of control and MTX-treated SKMEL-28 cells (48 h, 1 μM) and IGR39 (72 h, 1 μM) cells. […] Scale bar refers to all panels. F, Chromatin immunoprecipitation on TYR and Pmel17 genes of control and MTX-treated (4 h, 1 μM) SK-MEL-28 cells with qRT-PCR after immunoprecipitation with IgG, or MITF and HDAC3 antibodies. Error bars indicate standard deviations of triplicates; experiment reproduced four times with similar results. G, Scanning electron micrographs of control and MTX-treated (1 μM, 24 h) SK-MEL-28 cells. H, Semiquantitative RT PCR of TYR, TYRP1, Pmel17, MART1, and Rab27a mRNA. […]
Invasion assays were performed using a cell invasion assay kit (BD Bioscience). […] The invading cells were stained and quantified measuring the surface occupied by stained cells with a cell counter plug-in of the Image J software.

The subject of assay [1] is melanoma cells (SK-MEL-28). The experiment in a line: dNTP pool extraction and analysis. Type of assay: cell-based, human. How it is done: FIGS. 2A-N. MTX and TMECG combination therapy induces apoptosis via dTTP depletion and DNA-damage. A, Intracellular accumulation of TMECG-QM in SK-MEL-28 treated with TMECG or MTX/TMECG for 24 h. B, Proliferation assays performed of control or MTX/TMECG-treated ([…]) SK-MEL-28 cells. C, Quantification of effects of MTX/TMECG treatment on SK-MEL-28 cells (*P<0.05 with respect to TMECG-treated cells). For time course assay MTX (1 μM) and TMECG (10 μM) were used. D, dNTP quantification in melanoma cells subjected to indicated treatments (*P<0.05). E, SK-MEL-28 cells treated with MTX/TMECG for the indicated times were examined by immunofluorescence for γH2AX foci (red) and DAPI (blue) (left panels), or by WB (right panels). β-actin served as a protein loading control. F, apoptosis determination at different MTX/TMECG combinations in SK-MEL-28 cells after 4 days of treatment. Data were obtained in triplicate in two independent experiments. Differences in apoptosis in MTX/TMECG treated cells were significant with respect to individual treatments for each drug concentration (p<0.05). […] K, quantification of γH2AX foci in SK-MEL-28 cells treated with MTX (1 μM) and/or TMECG (10 μM), or X-rays. […] N, Cell cycle profile determined by flow cytometry of SK-MEL-28 cells treated with a sublethal dose of MTX/TMECG. […]

Assay [2] relates to B16/F10 primary splenic tumors. Nature of the assay: Primary spleen tumors after intrasplenic injection of luciferase-tagged B16/F10 cells. Type of assay: in vivo, mouse.
Method: C, Luciferase imaging of control and MTX/TMECG-treated mice 12 days post-tumor cell injection. Beetle luciferin (120 mg/kg of mouse) was injected intraperitoneally. The values (means±s.d.) are representative of three independent experiments. *P=0.007; **P=0.002. […] Xenograft tumors treated with DMSO (vehicle) or MTX/TMECG (1 mg/kg/day and 50 mg/kg/day, respectively) over 14-days. […] Representative images taken from two independent experiments (n=5 for each experiment). Scale bar=200 μm and is applicable to both panels. I, B16/F10 melanoma cells, expressing a luciferase reporter, were injected subcutaneously to mice. Mice were divided in two groups (n=7) and treated with vehicle (DMSO) or MTX/TMECG (1 mg/kg/day and 10 mg/kg/day, respectively) over 21-days. Then, tumors were pooled and dissociated. B16/F10 cells extracted from tumors were examined for their sensitivity to the MTX/TMECG combination (1 μM and 10 μM, respectively) using quantification of the luminescence signal (left panel). […] Scale bar refers to all panels. […] Mice were treated with vehicle, MTX (1 mg/kg/day), and/or TMECG (50 mg/kg/day). […] Scale bar refers to all panels.
A, Luciferase imaging of vehicle (control), MTX, and/or TMECG-treated mice 12 days post-tumor cell injection. Firefly luciferin (120 mg/kg of mouse) was injected intraperitoneally. The values are representative of three independent experiments. […] The number of cells was estimated by extrapolation of the experimental luciferase signal to calibration curves. A straight line with a good linear correlation coefficient (0.998) was obtained by plotting luciferase signal vs number of B16/F10-luc2 cells. Treatment of mice (n=6) started 24 hr after tumor induction (Day 1). For all experiments: *p<0.05 with respect to control mice; #p<0.05 with respect to individual MTX or TMECG treatments.

The structures appear in SMILES notation.

Take `CN(Cc1cnc2nc(N)nc(N)c2n1)c1ccc(C(=O)N[C@@H](CCC(=O)O)C(=O)O)cc1` [MTX, methotrexate]: in the assay with IGR39 cells, the invasiveness entry is listed as “eliminated invasiveness”. In addition, the dTTP levels entry in assay [1] was “increased dTTP levels”. The “necrotic areas in splenic tumors” value in assay [2] (14 days treatment, MTX 1 mg/kg/day and/or TMECG 50 mg/kg/day) was 4%±2%. Further, the “effect on in vivo luciferase signal” value in assay [2] (MTX or TMECG alone, 12 days post-tumor cell injection) is given as “around 2 fold”.
